Measurements reported in ChEMBL document CHEMBL5214900, “Design, Synthesis, and Biological Evaluation of Membrane-Active Bakuchiol Derivatives as Effective Broad-Spectrum Antibacterial Agents” (J Med Chem, 2021).
≈ marks a conversion by molar mass, not a printed value.

How the values were obtained:
[1] = Hemolytic activity in rabbit RBC measured after 1 hrs by multimode reader assay; format: toxicity, cell-based, Oryctolagus cuniculus, Erythrocyte; conditions: rabbit red blood cells (erythrocytes)
Staphylococcus aureus [2] = test: Antibacterial activity against methicillin-resistant Staphylococcus aureus NCTC10442 assessed as inhibition of bacterial growth incubated for 24 hrs by CLSI based broth dilution method; format: functional
Staphylococcus aureus [3] = test: Antibacterial activity against Staphylococcus aureus ATCC 29213 assessed as inhibition of bacterial growth incubated for 24 hrs by CLSI based broth dilution method; format: functional
Escherichia coli = test: Antibacterial activity against Escherichia coli ATCC 25922 assessed as inhibition of bacterial growth incubated for 24 hrs by CLSI based broth dilution method; format: functional
Staphylococcus aureus [4] = test: Antibacterial activity against methicillin-resistant Staphylococcus aureus N315 assessed as inhibition of bacterial growth incubated for 24 hrs by CLSI based broth dilution method; format: functional

SMILES: C=C[C@@](C)(/C=C/c1ccc(OCCCCNCCCC)cc1)CCC=C(C)C
- HC50 at 1 h [1]: 32.4 µg/mL
- MIC (Staphylococcus aureus [2]): 1.56 mg/L (≈ 4.07 µM)
- MIC (Staphylococcus aureus [3]): 1.56 mg/L (≈ 4.07 µM)
- MIC (Escherichia coli): 12.5 mg/L (≈ 32.6 µM)
- MIC (Staphylococcus aureus [4]): 1.56 mg/L (≈ 4.07 µM)

SMILES: C=C[C@@](C)(/C=C/c1ccc(OCCCCCCCCN(CC)CC)cc1)CCC=C(C)C
- HC50 at 1 h [1]: 83.5 µg/mL
- MIC (Staphylococcus aureus [2]): 1.56 mg/L (≈ 3.55 µM)
- MIC (Staphylococcus aureus [3]): 3.12 mg/L (≈ 7.11 µM)
- MIC (Escherichia coli): > 100 mg/L
- MIC (Staphylococcus aureus [4]): 1.56 mg/L (≈ 3.55 µM)

SMILES: C=C[C@@](C)(/C=C/c1ccc(OCCCCCCCCBr)cc1)CCC=C(C)C
- HC50 at 1 h [1]: > 200 µg/mL
- MIC (Staphylococcus aureus [2]): > 50 mg/L
- MIC (Staphylococcus aureus [3]): > 50 mg/L
- MIC (Escherichia coli): > 100 mg/L
- MIC (Staphylococcus aureus [4]): > 50 mg/L

SMILES: C=C[C@@](C)(/C=C/c1ccc(OCCCCNCCCCCCCC)cc1)CCC=C(C)C
- HC50 at 1 h [1]: > 200 µg/mL
- MIC (Staphylococcus aureus [2]): 3.12 mg/L (≈ 7.11 µM)
- MIC (Staphylococcus aureus [3]): 6.25 mg/L (≈ 14.2 µM)
- MIC (Escherichia coli): > 100 mg/L
- MIC (Staphylococcus aureus [4]): 1.56 mg/L (≈ 3.55 µM)

SMILES: C=C[C@@](C)(/C=C/c1ccc(OCCCCNCC)cc1)CCC=C(C)C
- HC50 at 1 h [1]: 21.8 µg/mL
- MIC (Staphylococcus aureus [2]): 1.56 mg/L (≈ 4.39 µM)
- MIC (Staphylococcus aureus [3]): 1.56 mg/L (≈ 4.39 µM)
- MIC (Escherichia coli): 12.5 mg/L (≈ 35.2 µM)
- MIC (Staphylococcus aureus [4]): 0.78 mg/L (≈ 2.19 µM)

SMILES: C=C[C@@](C)(/C=C/c1ccc(OCCCCBr)cc1)CCC=C(C)C
- HC50 at 1 h [1]: > 200 µg/mL
- MIC (Staphylococcus aureus [2]): > 50 mg/L
- MIC (Staphylococcus aureus [3]): > 50 mg/L
- MIC (Escherichia coli): > 100 mg/L
- MIC (Staphylococcus aureus [4]): > 50 mg/L

SMILES: C=C[C@@](C)(/C=C/c1ccc(OCCCCCCN(CC)CC)cc1)CCC=C(C)C
- HC50 at 1 h [1]: 65 µg/mL
- MIC (Staphylococcus aureus [2]): 1.56 mg/L (≈ 3.79 µM)
- MIC (Staphylococcus aureus [3]): 3.12 mg/L (≈ 7.59 µM)
- MIC (Escherichia coli): > 100 mg/L
- MIC (Staphylococcus aureus [4]): 0.78 mg/L (≈ 1.89 µM)

SMILES: C=C[C@@](C)(/C=C/c1ccc(OCCCBr)cc1)CCC=C(C)C
- HC50 at 1 h [1]: > 200 µg/mL
- MIC (Staphylococcus aureus [2]): > 50 mg/L
- MIC (Staphylococcus aureus [3]): > 50 mg/L
- MIC (Escherichia coli): > 100 mg/L
- MIC (Staphylococcus aureus [4]): > 50 mg/L

SMILES: C=C[C@@](C)(/C=C/c1ccc(OCCCCN(CC)CC)cc1)CCC=C(C)C
- HC50 at 1 h [1]: 109 µg/mL
- MIC (Staphylococcus aureus [2]): 3.12 mg/L (≈ 8.15 µM)
- MIC (Staphylococcus aureus [3]): 3.12 mg/L (≈ 8.15 µM)
- MIC (Escherichia coli): > 100 mg/L
- MIC (Staphylococcus aureus [4]): 3.12 mg/L (≈ 8.15 µM)

SMILES: C=C[C@@](C)(/C=C/c1ccc(OCCCCN(C)C)cc1)CCC=C(C)C
- HC50 at 1 h [1]: 41.7 µg/mL
- MIC (Staphylococcus aureus [2]): 3.12 mg/L (≈ 8.79 µM)
- MIC (Staphylococcus aureus [3]): 1.56 mg/L (≈ 4.39 µM)
- MIC (Escherichia coli): 50 mg/L (≈ 141 µM)
- MIC (Staphylococcus aureus [4]): 1.56 mg/L (≈ 4.39 µM)

SMILES: C=C[C@@](C)(/C=C/c1ccc(OCCCC[N+](C)(CC)CC)cc1)CCC=C(C)C.[I-]
- HC50 at 1 h [1]: 57 µg/mL
- MIC (Staphylococcus aureus [2]): 0.78 mg/L
- MIC (Staphylococcus aureus [3]): 1.56 mg/L
- MIC (Escherichia coli): 12.5 mg/L
- MIC (Staphylococcus aureus [4]): 0.39 mg/L

SMILES: C=C[C@@](C)(/C=C/c1ccc(OCCCN(CCCC)CCCC)cc1)CCC=C(C)C
- HC50 at 1 h [1]: > 200 µg/mL
- MIC (Staphylococcus aureus [2]): > 50 mg/L
- MIC (Staphylococcus aureus [3]): > 50 mg/L
- MIC (Escherichia coli): > 100 mg/L
- MIC (Staphylococcus aureus [4]): > 50 mg/L

SMILES: C=C[C@@](C)(/C=C/c1ccc(OCCCCNCCCCCC)cc1)CCC=C(C)C
- HC50 at 1 h [1]: 120 µg/mL
- MIC (Staphylococcus aureus [2]): 1.56 mg/L (≈ 3.79 µM)
- MIC (Staphylococcus aureus [3]): 1.56 mg/L (≈ 3.79 µM)
- MIC (Escherichia coli): 100 mg/L (≈ 243 µM)
- MIC (Staphylococcus aureus [4]): 0.78 mg/L (≈ 1.89 µM)

SMILES: C=C[C@@](C)(/C=C/c1ccc(OCCCCN2CCCC2)cc1)CCC=C(C)C
- HC50 at 1 h [1]: 58.2 µg/mL
- MIC (Staphylococcus aureus [2]): 1.56 mg/L (≈ 4.09 µM)
- MIC (Staphylococcus aureus [3]): 1.56 mg/L (≈ 4.09 µM)
- MIC (Escherichia coli): > 100 mg/L
- MIC (Staphylococcus aureus [4]): 1.56 mg/L (≈ 4.09 µM)

SMILES: C=C[C@@](C)(/C=C/c1ccc(OCCCCCCBr)cc1)CCC=C(C)C
- HC50 at 1 h [1]: > 200 µg/mL
- MIC (Staphylococcus aureus [2]): > 50 mg/L
- MIC (Staphylococcus aureus [3]): > 50 mg/L
- MIC (Escherichia coli): > 100 mg/L
- MIC (Staphylococcus aureus [4]): > 50 mg/L

SMILES: C=C[C@@](C)(/C=C/c1ccc(OCCCN(C)C)cc1)CCC=C(C)C
- HC50 at 1 h [1]: 88.5 µg/mL
- MIC (Staphylococcus aureus [2]): 6.25 mg/L (≈ 18.3 µM)
- MIC (Staphylococcus aureus [3]): 6.25 mg/L (≈ 18.3 µM)
- MIC (Escherichia coli): > 100 mg/L
- MIC (Staphylococcus aureus [4]): 6.25 mg/L (≈ 18.3 µM)

SMILES: C=C[C@@](C)(/C=C/c1ccc(OCCCC[N+](C)(C)C)cc1)CCC=C(C)C.[I-]
- HC50 at 1 h [1]: 34.2 µg/mL
- MIC (Staphylococcus aureus [2]): 0.78 mg/L
- MIC (Staphylococcus aureus [3]): 0.78 mg/L
- MIC (Escherichia coli): 6.25 mg/L
- MIC (Staphylococcus aureus [4]): 0.78 mg/L

SMILES: C=C[C@@](C)(/C=C/c1ccc(OCCCCNCCSC)cc1)CCC=C(C)C
- HC50 at 1 h [1]: 32.5 µg/mL
- MIC (Staphylococcus aureus [2]): 1.56 mg/L (≈ 3.88 µM)
- MIC (Staphylococcus aureus [3]): 0.78 mg/L (≈ 1.94 µM)
- MIC (Escherichia coli): 50 mg/L (≈ 124 µM)
- MIC (Staphylococcus aureus [4]): 0.78 mg/L (≈ 1.94 µM)

SMILES: C=C[C@@](C)(/C=C/c1ccc(OCCCCNCCCCCCCCCC)cc1)CCC=C(C)C
- HC50 at 1 h [1]: > 200 µg/mL
- MIC (Staphylococcus aureus [2]): 50 mg/L (≈ 107 µM)
- MIC (Staphylococcus aureus [3]): 50 mg/L (≈ 107 µM)
- MIC (Escherichia coli): > 100 mg/L
- MIC (Staphylococcus aureus [4]): 12.5 mg/L (≈ 26.7 µM)

SMILES: C=C[C@@](C)(/C=C/c1ccc(OCCCCCCCCCCBr)cc1)CCC=C(C)C
- HC50 at 1 h [1]: > 200 µg/mL
- MIC (Staphylococcus aureus [2]): > 50 mg/L
- MIC (Staphylococcus aureus [3]): > 50 mg/L
- MIC (Escherichia coli): > 100 mg/L
- MIC (Staphylococcus aureus [4]): > 50 mg/L
